This data set addresses human serum albumin (HSA) (Homo sapiens, UniProt P02768). As to the kind of experiment: Albumin binding affinity, competition scintillation proximity assay.

Our source for the EC50 values is patent publication US9067977B2, “Peptides derivatized with A-B-C-D- and their therapeutical use” (Novo Nordisk A/S, priority 2007, dated 2015).

Molecules are shown by their SMILES. Starred links: 1 amine or outer side, 2 acyl side, 3 side chain; linkers in the order of their positions; H or OH if unused. Non-standard residues stand in square brackets, D forms with d. Residues, ends and D or L forms follow the SMILES beside them. Groups on a side chain read outwards from the residue. *: point of attachment. X2 = O=C(O)CCCCCCCCCCCCCCCCCCC(=O)NCC1CCC(C(=O)*)CC1; C20 diacid = O=C(O)CCCCCCCCCCCCCCCCCCC(=O)*; γGlu = O=C(O)[C@H](CCC(=O)[*:2])N[*:1]; Desaminohistidyl = O=C(CCc1c[nH]cn1)*; βAsp = O=C(O)[C@H](CC(=O)[*:2])N[*:1]; Trx = NC[C@H]1CC[C@H](C(=O)O)CC1; AEEA = NCCOCCOCC(=O)O; Aib = CC(C)(N)C(=O)O; Inp = O=C(O)C1CCNCC1 A value given as a limit tells only on which side of the number the result lay.

Sequence of human serum albumin (HSA) (P02768 25-609): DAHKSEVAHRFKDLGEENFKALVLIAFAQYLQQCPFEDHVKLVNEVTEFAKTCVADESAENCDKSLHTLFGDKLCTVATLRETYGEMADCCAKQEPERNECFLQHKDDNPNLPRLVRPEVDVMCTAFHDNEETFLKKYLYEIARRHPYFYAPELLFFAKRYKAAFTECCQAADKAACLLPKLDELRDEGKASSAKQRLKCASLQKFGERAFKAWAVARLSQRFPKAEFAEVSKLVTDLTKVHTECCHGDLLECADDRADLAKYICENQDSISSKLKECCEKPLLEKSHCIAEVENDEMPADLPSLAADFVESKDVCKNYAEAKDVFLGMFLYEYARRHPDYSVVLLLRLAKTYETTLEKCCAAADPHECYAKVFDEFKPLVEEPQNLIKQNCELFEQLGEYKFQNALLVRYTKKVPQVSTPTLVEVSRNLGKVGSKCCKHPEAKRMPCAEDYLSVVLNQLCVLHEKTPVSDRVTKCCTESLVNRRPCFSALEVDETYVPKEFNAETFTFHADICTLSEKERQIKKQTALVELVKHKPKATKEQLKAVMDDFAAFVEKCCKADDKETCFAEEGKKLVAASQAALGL
Method: Streptavidin-SPA beads (GE Healthcare RPNQ0009) were incubated with biotinylated HSA for 5 hours. The beads were washed with buffer to remove unbound HSA. […] After 20 hours of gentle rocking at room temperature the plates were centrifuged and counted on a TopCounter.

Consider `CC[C@H](C)[C@H](NC(=O)[C@H](Cc1ccccc1)NC(=O)[C@H](CCC(=O)O)NC(=O)[C@H](CCCNC(=N)N)NC(=O)[C@H](C)NC(=O)[C@H](C)NC(=O)[C@H](CCC(N)=O)NC(=O)[C@H](CCC(=O)O)NC(=O)[C@H](CCC(=O)O)NC(=O)[C@H](CC(C)C)NC(=O)[C@H](Cc1ccc(O)cc1)NC(=O)[C@H](CO)NC(=O)[C@H](CO)NC(=O)[C@@H](NC(=O)[C@H](CC(=O)O)NC(=O)[C@H](CO)NC(=O)[C@@H](NC(=O)[C@H](Cc1ccccc1)NC(=O)[C@@H](NC(=O)CNC(=O)[C@H](CCC(=O)O)NC(=O)C(C)(C)NC(=O)[C@@H](N)Cc1c[nH]cn1)[C@@H](C)O)[C@@H](C)O)C(C)C)C(=O)N[C@@H](C)C(=O)N[C@@H](CCCCNC(=O)COCCOCCNC(=O)COCCOCCNC(=O)C[C@H](NC(=O)C1CCN(C(=O)CCCCCCCCCCCCCCCCCCC(=O)O)CC1)C(=O)O)C(=O)N[C@@H](CC(C)C)C(=O)N[C@H](C(=O)N[C@@H](CCCNC(=N)N)C(=O)NCC(=O)N[C@@H](CCCNC(=N)N)C(=O)NCC(=O)O)C(C)C` [Example 15, N-epsilon31-(2-{2-[2-(2-{2-[2-((S)-3-Carboxy-3-{[1-(19-carboxy-nonadecanoyl)piperidine-4-carbonyl]amino}propionylamino)ethoxy]ethoxy}acetylamino)ethoxy]ethoxy}acetyl)[Aib8,Glu22,Arg26,Lys31,Arg34]GLP-1-(7-37)] (H-H[Aib]EGTFTSDVSSYLEEQAAREFIAK([AEEA-AEEA-βAsp-Inp-C20 diacid])LVRGRG-OH), for which the EC50 was in the range of 150 to 300 nM. Consider `CC[C@H](C)[C@H](NC(=O)[C@H](Cc1ccccc1)NC(=O)[C@H](CCC(=O)O)NC(=O)[C@H](CCCNC(=N)N)NC(=O)[C@H](C)NC(=O)[C@H](C)NC(=O)[C@H](CCC(N)=O)NC(=O)[C@H](CCC(=O)O)NC(=O)[C@H](CCC(=O)O)NC(=O)[C@H](CC(C)C)NC(=O)[C@H](Cc1ccc(O)cc1)NC(=O)[C@H](CO)NC(=O)[C@H](CO)NC(=O)[C@@H](NC(=O)[C@H](CC(=O)O)NC(=O)[C@H](CO)NC(=O)[C@@H](NC(=O)[C@H](Cc1ccccc1)NC(=O)[C@@H](NC(=O)CNC(=O)[C@H](CCC(=O)O)NC(=O)C(C)(C)NC(=O)[C@@H](N)Cc1c[nH]cn1)[C@@H](C)O)[C@@H](C)O)C(C)C)C(=O)N[C@@H](C)C(=O)N[C@@H](Cc1c[nH]c2ccccc12)C(=O)N[C@@H](CC(C)C)C(=O)N[C@H](C(=O)N[C@@H](CCCNC(=N)N)C(=O)NCC(=O)N[C@@H](CCCNC(=N)N)C(=O)NCC(=O)N[C@@H](CCCCNC(=O)COCCOCCNC(=O)COCCOCCNC(=O)C[C@H](NC(=O)C1CCC(CNC(=O)CCCCCCCCCCCCCCCCCCC(=O)O)CC1)C(=O)O)C(N)=O)C(C)C` (stereo partly drawn) [Example 22, [Aib8,Glu22,Arg26,Arg34]GLP-1-(7-37)Lys[2-(2-[2-(2-[2-(2-((S)-3-[4-([19-Carboxynonadecanoylamino]methyl)cyclohexylcarbonylamino]-3-carboxypropionylamino)ethoxy)ethoxy]acetylamino)ethoxy]ethoxy)acetyl]amide] (H-H[Aib]EGTFTSDVSSYLEEQAAREFIAWLVRGRGK([AEEA-AEEA-βAsp-X2])-NH2; N-terminus assumed), for which the EC50 is 150 to 300 nM. The same measure, in the same setting: the figure for `CC[C@H](C)[C@H](NC(=O)[C@H](Cc1ccccc1)NC(=O)[C@H](CCC(=O)O)NC(=O)[C@H](CCCNC(=N)N)NC(=O)[C@H](C)NC(=O)[C@H](C)NC(=O)[C@H](CCC(N)=O)NC(=O)[C@H](CCC(=O)O)NC(=O)[C@H](CCC(=O)O)NC(=O)[C@H](CC(C)C)NC(=O)[C@H](Cc1ccc(O)cc1)NC(=O)[C@H](CO)NC(=O)[C@H](CO)NC(=O)[C@@H](NC(=O)[C@H](CC(=O)O)NC(=O)[C@H](CO)NC(=O)[C@@H](NC(=O)[C@H](Cc1ccccc1)NC(=O)[C@@H](NC(=O)CNC(=O)[C@H](CCC(=O)O)NC(=O)C(C)(C)NC(=O)[C@@H](N)Cc1c[nH]cn1)[C@@H](C)O)[C@@H](C)O)C(C)C)C(=O)N[C@@H](C)C(=O)N[C@@H](Cc1c[nH]c2ccccc12)C(=O)N[C@@H](CC(C)C)C(=O)N[C@H](C(=O)N[C@@H](CCCNC(=N)N)C(=O)NCC(=O)N[C@@H](CCCNC(=N)N)C(=O)N[C@@H](CCCCNC(=O)COCCOCCNC(=O)COCCOCCNC(=O)CC[C@H](NC(=O)[C@H]1CC[C@H](CNC(=O)CCCCCCCCCCCCCCCCCCC(=O)O)CC1)C(=O)O)C(N)=O)C(C)C` [Example 23, N-epsilon37-[2-(2-{2-[2-(2-{2-[(S)-4-Carboxy-4-({trans-4-[(19-carboxy-nonadecanoylamino)methyl]cyclohexanecarbonyl}amino)butyrylamino]ethoxy}ethoxy)acetylamino]ethoxy}ethoxy)acetyl][Aib8,Glu22,Arg26,Arg34,Lys37]GLP-1-(7-37)amide] is 800 to 2000 nM; for `CC[C@H](C)[C@H](NC(=O)[C@H](Cc1ccccc1)NC(=O)[C@H](CCC(=O)O)NC(=O)[C@H](CCCNC(=N)N)NC(=O)[C@H](C)NC(=O)[C@H](C)NC(=O)[C@H](CCC(N)=O)NC(=O)[C@H](CCC(=O)O)NC(=O)[C@H](CCC(=O)O)NC(=O)[C@H](CC(C)C)NC(=O)[C@H](Cc1ccc(O)cc1)NC(=O)[C@H](CO)NC(=O)[C@H](CO)NC(=O)[C@@H](NC(=O)[C@H](CC(=O)O)NC(=O)[C@H](CO)NC(=O)[C@@H](NC(=O)[C@H](Cc1ccccc1)NC(=O)[C@@H](NC(=O)CNC(=O)[C@H](CCC(=O)O)NC(=O)[C@H](C)NC(=O)CCc1c[nH]cn1)[C@@H](C)O)[C@@H](C)O)C(C)C)C(=O)N[C@@H](C)C(=O)N[C@@H](Cc1c[nH]c2ccccc12)C(=O)N[C@@H](CC(C)C)C(=O)N[C@H](C(=O)N[C@@H](CCCNC(=N)N)C(=O)NCC(=O)N[C@@H](CCCNC(=N)N)C(=O)N[C@@H](CCCCNC(=O)COCCOCCNC(=O)COCCOCCNC(=O)CC[C@H](NC(=O)[C@H]1CC[C@H](CNC(=O)CCCCCCCCCCCCCCCCCCC(=O)O)CC1)C(=O)O)C(N)=O)C(C)C` [Example 24, N-epsilon37-[2-(2-{2-[2-(2-{2-[(S)-4-Carboxy-4-({trans-4-[(19-carboxy-nonadecanoylamino)methyl]cyclohexanecarbonyl}amino)butyrylamino]ethoxy}ethoxy)acetylamino]ethoxy}ethoxy)acetyl][DesaminoHis7,Glu22,Arg26,Arg34,Lys37]GLP-1-(7-37)amide] it is 800 to 2000 nM; for `CC[C@H](C)[C@H](NC(=O)[C@H](Cc1ccccc1)NC(=O)[C@H](CCC(=O)O)NC(=O)[C@H](CCCNC(=N)N)NC(=O)[C@H](C)NC(=O)[C@H](C)NC(=O)[C@H](CCC(N)=O)NC(=O)CNC(=O)[C@H](CCC(=O)O)NC(=O)[C@H](CC(C)C)NC(=O)[C@H](Cc1ccc(O)cc1)NC(=O)[C@H](CO)NC(=O)[C@H](CO)NC(=O)[C@@H](NC(=O)[C@H](CC(=O)O)NC(=O)[C@H](CO)NC(=O)[C@@H](NC(=O)[C@H](Cc1ccccc1)NC(=O)[C@@H](NC(=O)CNC(=O)[C@H](CCC(=O)O)NC(=O)[C@H](C)NC(=O)CCc1c[nH]cn1)[C@@H](C)O)[C@@H](C)O)C(C)C)C(=O)N[C@@H](C)C(=O)N[C@@H](Cc1c[nH]c2ccccc12)C(=O)N[C@@H](CC(C)C)C(=O)N[C@H](C(=O)N[C@@H](CCCNC(=N)N)C(=O)NCC(=O)N[C@@H](CCCNC(=N)N)C(=O)N[C@@H](CCCCNC(=O)COCCOCCNC(=O)COCCOCCNC(=O)CC[C@H](NC(=O)[C@H]1CC[C@H](CNC(=O)CCCCCCCCCCCCCCCCCCC(=O)O)CC1)C(=O)O)C(N)=O)C(C)C` [Example 25] it is above 2000 nM.

Take `CC[C@H](C)[C@H](NC(=O)[C@H](Cc1ccccc1)NC(=O)[C@H](CCC(=O)O)NC(=O)[C@H](CCCNC(=N)N)NC(=O)[C@H](C)NC(=O)[C@H](C)NC(=O)[C@H](CCC(N)=O)NC(=O)[C@H](CCC(=O)O)NC(=O)[C@H](CCC(=O)O)NC(=O)[C@H](CC(C)C)NC(=O)[C@H](Cc1ccc(O)cc1)NC(=O)[C@H](CO)NC(=O)[C@H](CO)NC(=O)[C@@H](NC(=O)[C@H](CC(=O)O)NC(=O)[C@H](CO)NC(=O)[C@@H](NC(=O)[C@H](Cc1ccccc1)NC(=O)[C@@H](NC(=O)CNC(=O)[C@H](CCC(=O)O)NC(=O)[C@H](C)NC(=O)CCc1c[nH]cn1)[C@@H](C)O)[C@@H](C)O)C(C)C)C(=O)N[C@@H](C)C(=O)N[C@@H](Cc1c[nH]c2ccccc12)C(=O)N[C@@H](CC(C)C)C(=O)N[C@H](C(=O)N[C@@H](CCCNC(=N)N)C(=O)NCC(=O)N[C@@H](CCCNC(=N)N)C(=O)N[C@@H](CCCCNC(=O)COCCOCCNC(=O)COCCOCCNC(=O)CC[C@H](NC(=O)[C@H]1CC[C@H](CNC(=O)CCCCCCCCCCCCCCCCCCC(=O)O)CC1)C(=O)O)C(=O)O)C(C)C` [Example 26, N-epsilon37-[2-(2-{2-[2-(2-{2-[(S)-4-Carboxy-4-({trans-4-[(19-carboxy-nonadecanoylamino)methyl]cyclohexanecarbonyl}amino)butyrylamino]ethoxy}ethoxy)acetylamino]ethoxy}ethoxy)acetyl][DesaminoHis7,Glu22,Arg26,Arg34,Lys37]GLP-1-(7-37)]: the EC50 was 800 to 2000 nM. On to `CC[C@H](C)[C@H](NC(=O)[C@H](Cc1ccccc1)NC(=O)[C@H](CCC(=O)O)NC(=O)[C@H](CCCNC(=N)N)NC(=O)[C@H](C)NC(=O)[C@H](C)NC(=O)[C@H](CCC(N)=O)NC(=O)[C@H](CCC(=O)O)NC(=O)[C@H](CCC(=O)O)NC(=O)[C@H](CC(C)C)NC(=O)[C@H](Cc1ccc(O)cc1)NC(=O)[C@H](CO)NC(=O)[C@H](CO)NC(=O)[C@@H](NC(=O)[C@H](CC(=O)O)NC(=O)[C@H](CO)NC(=O)[C@@H](NC(=O)[C@H](Cc1ccccc1)NC(=O)[C@@H](NC(=O)CNC(=O)[C@H](CCC(=O)O)NC(=O)[C@H](C)NC(=O)CCc1c[nH]cn1)[C@@H](C)O)[C@@H](C)O)C(C)C)C(=O)N[C@@H](C)C(=O)N[C@@H](Cc1c[nH]c2ccccc12)C(=O)N[C@@H](CC(C)C)C(=O)N[C@H](C(=O)N[C@@H](CCCNC(=N)N)C(=O)NCC(=O)N[C@@H](CCCNC(=N)N)C(=O)NCC(=O)N[C@@H](CCCCNC(=O)COCCOCCNC(=O)COCCOCCNC(=O)CC[C@H](NC(=O)[C@H]1CC[C@H](CNC(=O)CCCCCCCCCCCCCCCCCCC(=O)O)CC1)C(=O)O)C(N)=O)C(C)C` [Example 27, [DesaminoHis7,Glu22,Arg26,Arg34]GLP-1-(7-37)Lys[2-(2-{2-[2-(2-{2-[4-Carboxy-4-({trans-4-[(19-carboxy-nonadecanoylamino)methyl]cyclohexanecarbonyl}amino)butyrylamino]ethoxy}ethoxy)acetylamino]ethoxy}ethoxy)acetyl]-amide] (Desaminohistidyl-AEGTFTSDVSSYLEEQAAREFIAWLVRGRGK([AEEA-AEEA-γGlu-Trx-C20 diacid])-NH2), for which the EC50 at 20 h (human, biotinylated human serum albumin on streptavidin-SPA beads, pH 7.4) fell in the range of 800 to 2000 nM.
